ChEMBL document CHEMBL3046486, “Insights into the structural requirement of 6-nitroquinolone-3-carboxylic acids as antimycobacterial agent: chemometric approaches” (2012)

Tested on: Mycobacterium tuberculosis
Test: Antimycobacterial activity against Mycobacterium tuberculosis by NCCLS agar dilution method
Format: functional

SMILES	-logMIC
CC(C)(C)n1cc(C(=O)O)c(=O)c2cc([N+](=O)[O-])c(N3CCN(C(c4ccccc4)c4ccc(Cl)cc4)CC3)cc21 (stereo unspecified)	5.264
CC(C)(C)NC(=O)C1c2ccccc2CCN1c1cc2c(cc1[N+](=O)[O-])c(=O)c(C(=O)O)cn2-c1ccc(F)cc1 (stereo unspecified)	5.252
O=C(O)c1cn(-c2ccc(F)cc2)c2cc(N3CCN(C(c4ccccc4)c4ccc(Cl)cc4)CC3)c([N+](=O)[O-])cc2c1=O (stereo unspecified)	4.992
Cc1onc(-c2c(F)cccc2F)c1C(=O)N1CCN(c2cc3c(cc2[N+](=O)[O-])c(=O)c(C(=O)O)cn3-c2ccc(F)cc2)CC1	5.306
O=C(O)c1cn(-c2ccc(F)cc2)c2cc(N3CCN(C(=O)C4COc5ccccc5O4)CC3)c([N+](=O)[O-])cc2c1=O (stereo unspecified)	5.565
O=C(O)c1cn(-c2ccc(F)cc2)c2cc(N3CCC(N4CCCCC4)CC3)c([N+](=O)[O-])cc2c1=O	5.199
O=C(O)c1cn(-c2ccc(F)cc2)c2cc(N3CCSCC3)c([N+](=O)[O-])cc2c1=O	4.837
CC(C)(C)n1cc(C(=O)O)c(=O)c2cc([N+](=O)[O-])c(N3CCSCC3)cc21	5.097
CC(C)(C)n1cc(C(=O)O)c(=O)c2cc([N+](=O)[O-])c(N3CCn4cc(C(=O)O)nc4C3)cc21	5.163
CC1CN(c2cc3c(cc2[N+](=O)[O-])c(=O)c(C(=O)O)cn3C2CC2)CC(C)O1 (stereo unspecified)	5.697
O=C(O)c1cn(-c2ccc(F)cc2)c2cc(N3CCN(Cc4ccc5c(c4)OCO5)CC3)c([N+](=O)[O-])cc2c1=O	5.545
O=C(O)c1cn(C2CC2)c2cc(N3CCN(C(c4ccccc4)c4ccc(Cl)cc4)CC3)c([N+](=O)[O-])cc2c1=O (stereo unspecified)	5.253
O=C(O)c1cn(-c2ccc(F)cc2)c2cc(N3CCN(C(=O)c4ccco4)CC3)c([N+](=O)[O-])cc2c1=O	5.209
CC1CN(c2cc3c(cc2[N+](=O)[O-])c(=O)c(C(=O)O)cn3-c2ccc(F)cc2)CC(C)O1 (stereo unspecified)	5.452
O=C(O)c1cn(C2CC2)c2cc(N3CCC(O)(c4ccc(Cl)cc4)CC3)c([N+](=O)[O-])cc2c1=O	6.092
CCN(CC)C(=O)C1CCCN(c2cc3c(cc2[N+](=O)[O-])c(=O)c(C(=O)O)cn3-c2ccc(F)cc2)C1 (stereo unspecified)	5.213

SMILES	-logMIC
O=C(O)c1cn(C2CC2)c2cc(N3CCC(N4CCCCC4)CC3)c([N+](=O)[O-])cc2c1=O	6.367
CC(C)(C)n1cc(C(=O)O)c(=O)c2cc([N+](=O)[O-])c(N3CCC(n4c(=O)[nH]c5cc(Cl)ccc54)CC3)cc21	5.237
CC(C)(C)n1cc(C(=O)O)c(=O)c2cc([N+](=O)[O-])c(N3CCC4(CC3)OCCO4)cc21	5.128
CC(C)(C)n1cc(C(=O)O)c(=O)c2cc([N+](=O)[O-])c(N3CCN(C(=O)c4ccco4)CC3)cc21	5.175
CCN(CC)C(=O)C1CCCN(c2cc3c(cc2[N+](=O)[O-])c(=O)c(C(=O)O)cn3C(C)(C)C)C1 (stereo unspecified)	5.179
O=C(O)c1cn(-c2ccc(F)cc2)c2cc(N3CCC4(CC3)OCCO4)c([N+](=O)[O-])cc2c1=O	5.176
O=C(O)c1cn(C2CC2)c2cc(N3CCN(C(=O)C4COc5ccccc5O4)CC3)c([N+](=O)[O-])cc2c1=O (stereo unspecified)	5.524
COc1ccc(CC2C3=C(CCCC3)CCN2c2cc3c(cc2[N+](=O)[O-])c(=O)c(C(=O)O)cn3-c2ccc(F)cc2)cc1 (stereo unspecified)	5.271
O=C(O)c1cn(-c2ccc(F)cc2)c2cc(N3CCC(n4c(=O)[nH]c5cc(Cl)ccc54)CC3)c([N+](=O)[O-])cc2c1=O	5.266
CC(C)(C)n1cc(C(=O)O)c(=O)c2cc([N+](=O)[O-])c(N3CCN(Cc4ccc5c(c4)OCO5)CC3)cc21	5.513
O=C(O)c1cn2c(n1)CN(c1cc3c(cc1[N+](=O)[O-])c(=O)c(C(=O)O)cn3-c1ccc(F)cc1)CC2	4.92
CC(C)(C)NC(=O)C1c2ccccc2CCN1c1cc2c(cc1[N+](=O)[O-])c(=O)c(C(=O)O)cn2C1CC1 (stereo unspecified)	5.81
CN1CCN(c2cc3c(cc2[N+](=O)[O-])c(=O)c(C(=O)O)cn3C(C)(C)C)CC1c1ccccc1 (stereo unspecified)	4.793
O=C(O)c1cn(C2CC2)c2cc(N3CCSCC3)c([N+](=O)[O-])cc2c1=O	5.38
CCN(CC)C(=O)C1CCCN(c2cc3c(cc2[N+](=O)[O-])c(=O)c(C(=O)O)cn3C2CC2)C1 (stereo unspecified)	5.466
